Results published in the supplement of paper PMC10307832.

What was measured:
Experiment in all cases: relative viability (nuclei count vs DMSO), 5 days (fraction); higher = more cells survive
BAM7 + Lapatinib = compound: CCOC1=CC=CC=C1N=NC2=C(NN(C2=O)C3=NC(=CS3)C4=CC=CC=C4)C [BAM7] + CS(=O)(=O)CCNCc1ccc(-c2ccc3ncnc(Nc4ccc(OCc5cccc(F)c5)c(Cl)c4)c3c2)o1 [Lapatinib] (partner 2 µM)
Outline: (§1)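 For relative viability, nuclei counts in treated wells were divided by those in vehicle wells. Lung cancer cell lines had been pin-tool dosed in 1536-well plates the day after seeding and cultured for 5 days, then fixed and stained in one step (final 0.05% Triton X-100, 1% formaldehyde, 1 ug/ml Hoechst) and imaged at 4×. Doses were one drug alone or a fixed anchor-drug dose plus five library-drug doses (not always all listed) in √10 steps, and values are duplicate-plate medians.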

[1] = compound: CCn1c(-c2nonc2N)nc2c(C#CC(C)(C)O)ncc(OC[C@H]3CCCNC3)c21 + Cc1cc(Nc2cc(N3CCN(C)CC3)nc(Sc3ccc(NC(=O)C4CC4)cc3)n2)n[nH]1 [Tozasertib] (partner 0.1 µM)
Outline: as §1

[2] = compound: CCn1c(-c2nonc2N)nc2c(C#CC(C)(C)O)ncc(OC[C@H]3CCCNC3)c21 + Cc1nc(NC(=O)N2CCC[C@H]2C(N)=O)sc1-c1ccnc(C(C)(C)C(F)(F)F)c1 [Alpelisib] (partner 2 µM)
Outline: as §1

[3] = compound: CCn1c(-c2nonc2N)nc2c(C#CC(C)(C)O)ncc(OC[C@H]3CCCNC3)c21 + O=C(c1cc(Cc2n[nH]c(=O)c3ccccc23)ccc1F)N1CCN(C(=O)C2CC2)CC1 [Olaparib] (partner 8 µM)
Outline: as §1

| Cell Line | relative viability (BAM7 + Lapatinib; first compound 0.5 µM) | relative viability (BAM7 + Lapatinib; first compound 5 µM) | relative viability (BAM7 + Lapatinib; first compound 15.81 µM) | relative viability (BAM7 + Lapatinib; first compound 50 µM) | relative viability ([1]; first compound 0.01 µM) | relative viability ([1]; first compound 0.03162 µM) | relative viability ([1]; first compound 0.1 µM) | relative viability ([1]; first compound 0.3162 µM) | relative viability ([1]; first compound 1 µM) | relative viability ([2]; first compound 0.01 µM) | relative viability ([2]; first compound 0.03162 µM) | relative viability ([2]; first compound 0.1 µM) | relative viability ([2]; first compound 0.3162 µM) | relative viability ([2]; first compound 1 µM) | relative viability ([3]; first compound 0.01 µM) | relative viability ([3]; first compound 0.03162 µM) | relative viability ([3]; first compound 0.1 µM) | relative viability ([3]; first compound 0.3162 µM) | relative viability ([3]; first compound 1 µM) |
| --- | --- | --- | --- | --- | --- | --- | --- | --- | --- | --- | --- | --- | --- | --- | --- | --- | --- | --- | --- |
| 201T | 1.05 | 1.04 | 0.973 | 1.02 | 0.954 | 0.948 | 0.914 | 0.933 | 0.963 | 0.989 | 0.992 | 0.99 | 0.978 | 1.02 | 0.855 | 0.861 | 0.838 | 0.801 | 0.827 |
| A549 | 1.08 | 1.05 | 1.03 | 0.924 | – | – | – | – | – | 0.761 | 0.654 | 0.748 | 0.482 | 0.714 | 0.407 | 0.351 | 0.318 | 0.301 | 0.257 |
| A-427 | 1.01 | 1.09 | 1.03 | 1.09 | 0.243 | 0.227 | 0.251 | 0.24 | 0.188 | 0.998 | 1.11 | 1.05 | 0.997 | 1.14 | 0.737 | 0.203 | 0.75 | 0.683 | 0.709 |
| ABC-1 | – | 1.24 | 1.16 | 1.36 | 0.167 | 0.169 | 0.176 | 0.151 | 0.154 | 0.849 | 0.961 | 1.09 | 0.881 | 0.715 | 0.684 | – | 0.977 | 1.05 | 1.03 |
| BEN | 0.754 | 0.72 | 0.676 | 0.836 | 0.588 | 0.481 | 0.476 | 0.53 | 0.515 | 1.01 | 1.17 | 1.01 | 0.987 | 1.01 | 1.14 | 1.19 | 1.15 | 0.919 | 0.966 |
| CAL-12T | 0.677 | 0.581 | 0.599 | 0.692 | 0.351 | 0.354 | 0.303 | 0.309 | 0.298 | 1.03 | 1.33 | 1.21 | 1.24 | 0.939 | 0.599 | 0.708 | 0.72 | 0.699 | 0.729 |
| COR-L23 | 1.28 | 1.14 | 0.914 | 1.02 | 0.202 | 0.19 | 0.235 | 0.188 | 0.18 | 0.695 | 0.866 | 0.671 | 0.663 | 0.7 | 0.329 | 0.429 | 0.357 | 0.379 | 0.376 |
| COR-L 105 | 0.357 | 0.355 | 0.382 | 0.44 | 0.31 | 0.432 | 0.407 | 0.367 | 0.374 | 1.05 | 0.962 | 0.871 | 0.703 | 0.808 | 0.658 | 0.759 | 0.689 | 0.696 | 1.19 |
| Calu-6 | 1.06 | 1.09 | 1.05 | 1.07 | – | – | – | – | – | 0.92 | 1.08 | 1.02 | 0.963 | 1.14 | 0.546 | 0.589 | 0.605 | 0.558 | 0.644 |
